The subject of assay [1] is IRF3 signaling pathway (IRF-inducible ISG54 promotor) in THP1-Lucia ISG cells. The experiment in a line: THP1-Lucia ISG reporter assay: induction of IRF3-dependent luciferase activity. Format: cell-based. As to conditions: Homo sapiens, PMA-differentiated cells, 18 h after stimulation, read-out: THP1 ISG: fold increase of IRF3-dependent luciferase activity over background; for fold induction at 10 µM: 10 μM compound; for fold induction at 20 µM: 20 μM compound (*). The method, boiled down: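 PMA-differentiated (100 ng/ml) reporter cells, parental and IRF3−/−, stimulated with compounds at 5–20 μM (mostly 10 μM). Secreted luciferase measured 18 h later. Scored as fold increase over untreated background in bands from "−" (<2.4-fold) to "+++++" (≥40-fold).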

In assay [2] the test system is THP1-Lucia ISG IRF3 −/− cells. The experiment in a line: IRF3-deficient THP1-Lucia ISG IRF3 −/− reporter assay (counter-screen). Format: cell-based. As to conditions: Homo sapiens, 18 h after stimulation, read-out: THP1 ISG IRF3 −/−: fold increase of luciferase activity over background; for fold induction at 10 µM: 10 μM compound; for fold induction at 20 µM: 20 μM compound (*). An outline of the steps:
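PMA-differentiated (100 ng/ml) reporter cells carrying ISRE/ISG54 minimal promoter-driven secreted luciferase were stimulated with compounds at 5–20 μM (mostly 10 μM). Luciferase measured 18 h later and expressed as fold increase over untreated background, binned from "−" (<2.4-fold) to "+++++" (≥40-fold).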
In general terms: In a reporter assay the amount or activity of a reporter protein is the signal.

Assay [3] deals with CXCL10 secretion by CT26 cells. The experiment in a line: RIG-I dependent CXCL10 secretion by CT26 colon carcinoma cells (ELISA). Format: cell-based, murine. As to conditions: 24 h. An outline of the steps:
(§1)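 Murine CT26 colon carcinoma cells, and CRISPR-generated RIG-I knockout CT26 cells, were seeded at 1×10^4 cells/well and grown 24 h at 37 °C, 5% CO2, then treated with compounds at 5 to 20 μM. CXCL10 in supernatants was measured by ELISA 24 h after stimulation.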
(In general: ELISA stands for enzyme-linked immunosorbent assay.)

The test system of assay [4] is RIG-I deficient CT26 RIG-1−/− cells. The experiment in a line: CXCL10 secretion in RIG-I deficient CT26 RIG-1−/− cells (ELISA). The class given is cell-based, murine. As to conditions: 24 h. The method, boiled down:
as §1

Marks after values point to notes of the source that are not given here. Where only a bound is given, the exact number is not on record here.

Consider `O=C(Nc1nc2ccc(S(=O)(=O)N3CCCC3)cc2s1)c1ccc(-c2ccccc2)cc1OCCCCN1CCOCC1` [Example 41, 3-[4-(morpholin-4-yl)butoxy]-N-[6-(pyrrolidine-1-sulfonyl)-1,3-benzothiazol-2-yl]-[1,1′-biphenyl]-4-carboxamide], for which the fold induction at 10 µM was 20 to 39 in assay [1] and under 2.4 in assay [2]. Also, in assay [3] (10 μM compound), the “CXCL10 secretion by CT26 cells” value is given as “+++++ (“+++++” indicates greater than or equal to 1600 pg/ml)”. In assay [4] (10 μM compound), the “CXCL10 secretion by CT26 RIG-I −/− cells” value is “− (“−” indicates less than 100 pg/mL)”.

Regarding `O=C(Nc1nc2ccc(S(=O)(=O)N3CCCC3)cc2s1)c1cc2ccsc2cc1OCCCCN1CCOCC1` [Example 42, 6-[4-(morpholin-4-yl)butoxy]-N-[6-(pyrrolidine-1-sulfonyl)-1,3-benzothiazol-2-yl]-1-benzothiophene-5-carboxamide], the fold induction at 10 µM in assay [1] is 5 to 9.9; in assay [2], under 2.4. The “CXCL10 secretion by CT26 cells” value in assay [3] (10 μM compound) was “++++ (“++++” indicates 800 to 1599 pg/mL)”. In addition, the “CXCL10 secretion by CT26 RIG-I −/− cells” value in assay [4] (10 μM compound) was “− (“−” indicates less than 100 pg/mL)”.

On to `O=C(Nc1nc2ccc(S(=O)(=O)N3CCCC3)cc2s1)c1cc2c(cc1OCCCCN1CCOCC1)OCO2` [Example 43, 6-[4-(morpholin-4-yl)butoxy]-N-[6-(pyrrolidine-1-sulfonyl)-1,3-benzothiazol-2-yl]-2H-1,3-benzodioxole-5-carboxamide], for which the fold induction at 10 µM in assay [1] is 5 to 9.9; in assay [2] it was under 2.4. Besides, in assay [3] (10 μM compound), the “CXCL10 secretion by CT26 cells” value is reported as “++++ (“++++” indicates 800 to 1599 pg/mL)”. The “CXCL10 secretion by CT26 RIG-I −/− cells” value in assay [4] (10 μM compound) is given as “− (“−” indicates less than 100 pg/mL)”.

On to `CS(=O)(=O)c1ccc2nc(NC(=O)c3cc4ccccc4cc3OCCN3CCOCC3)sc2c1` [Example 44, N-(6-methanesulfonyl-1,3-benzothiazol-2-yl)-3-[2-(morpholin-4-yl)ethoxy]naphthalene-2-carboxamide], for which the fold induction at 10 µM in assay [1] and in assay [2] was under 2.4 each time. Also, the “CXCL10 secretion by CT26 cells” value in assay [3] (5 μM compound (**)) is “++** (“++” indicates 200-399 pg/mL)”. Moreover, the “CXCL10 secretion by CT26 RIG-I −/− cells” value in assay [4] (5 μM compound (**)) is “−** (“−” indicates less than 100 pg/mL)”.

Regarding `CS(=O)(=O)c1ccc2nc(NC(=O)c3cc4ccccc4cc3OCCCCN3CCOCC3)sc2c1` [Example 45, N-(6-methanesulfonyl-1,3-benzothiazol-2-yl)-3-[4-(morpholin-4-yl)butoxy]naphthalene-2-carboxamide], the fold induction at 10 µM is 5 to 9.9 in assay [1] and under 2.4 in assay [2]. Further, the “CXCL10 secretion by CT26 cells” value in assay [3] (10 μM compound) is recorded as “++++ (“++++” indicates 800 to 1599 pg/mL)”. The “CXCL10 secretion by CT26 RIG-I −/− cells” value in assay [4] (10 μM compound) is reported as “− (“−” indicates less than 100 pg/mL)”.

As for `O=C(Nc1nc2ccc(S(=O)(=O)N3CCC3)cc2s1)c1ccc2ccccc2c1` [Example 46, N-[6-(azetidine-1-sulfonyl)-1,3-benzothiazol-2-yl]naphthalene-2-carboxamide], the fold induction at 20 µM in assay [1] was 10 to 19; in assay [2] it was under 2.4. Moreover, the “CXCL10 secretion by CT26 cells” value in assay [3] (10 μM compound) is “++ (“++” indicates 200-399 pg/mL)”. Further, in assay [4] (10 μM compound), the “CXCL10 secretion by CT26 RIG-I −/− cells” value is “− (“−” indicates less than 100 pg/mL)”.

For the compound `O=C(Nc1nc2ccc(S(=O)(=O)N3CCCC3)cc2s1)c1ccc(-c2ccccc2)cc1OCCN1CCOCC1` [Example 47, 3-[2-(morpholin-4-yl)ethoxy]-N-[6-(pyrrolidine-1-sulfonyl)-1,3-benzothiazol-2-yl]-[1,1′-biphenyl]-4-carboxamide], the results for the fold induction at 10 µM in assay [1] and in assay [2] were at least 40 and under 2.4, respectively. Further, the “CXCL10 secretion by CT26 cells” value in assay [3] (10 μM compound) was “+++ (“+++” indicates 400-799 pg/mL)”. The “CXCL10 secretion by CT26 RIG-I −/− cells” value in assay [4] (10 μM compound) is listed as “− (“−” indicates less than 100 pg/mL)”.

On to `O=C(Nc1nc2ccc(SC(F)F)cc2s1)c1cc2ccccc2cc1OCCN1CCOCC1` [Example 48, N-{6-[(difluoromethyl)sulfanyl]-1,3-benzothiazol-2-yl}-3-[2-(morpholin-4-yl)ethoxy]naphthalene-2-carboxamide], for which the fold induction at 20 µM was 2.4 to 4.9 in assay [1] and under 2.4 in assay [2]. Further, the “CXCL10 secretion by CT26 cells” value in assay [3] (10 μM compound) is reported as “++ (“++” indicates 200-399 pg/mL)”. In assay [4] (10 μM compound), the “CXCL10 secretion by CT26 RIG-I −/− cells” value is on record as “− (“−” indicates less than 100 pg/mL)”.

`O=C(Nc1nc2ccc(SC(F)F)cc2s1)c1cc2ccccc2cc1OCCCCN1CCOCC1` [Example 49, N-{6-[(difluoromethyl)sulfanyl]-1,3-benzothiazol-2-yl}-3-[4-(morpholin-4-yl)butoxy]naphthalene-2-carboxamide]: the fold induction at 10 µM in assay [1] was 20 to 39; in assay [2], under 2.4. For the same compound, the “CXCL10 secretion by CT26 cells” value in assay [3] (10 μM compound) is on record as “+++ (“+++” indicates 400-799 pg/mL)”. In assay [4] (10 μM compound), the “CXCL10 secretion by CT26 RIG-I −/− cells” value was “− (“−” indicates less than 100 pg/mL)”.

Consider `O=C(Nc1nc2ccc(S(=O)(=O)N3CCC3)cc2s1)c1ccc(-c2ccccc2)cc1` [Example 50, N-[6-(azetidine-1-sulfonyl)-1,3-benzothiazol-2-yl]-[1,1′-biphenyl]-4-carboxamide], for which the fold induction at 10 µM in assay [1] was 5 to 9.9; in assay [2], under 2.4. Also, in assay [3] (10 μM compound), the “CXCL10 secretion by CT26 cells” value is on record as “+++++ (“+++++” indicates greater than or equal to 1600 pg/ml)”. The “CXCL10 secretion by CT26 RIG-I −/− cells” value in assay [4] (10 μM compound) is given as “− (“−” indicates less than 100 pg/mL)”.

Consider `Cn1c(C(=O)Nc2nc3ccc(S(=O)(=O)N4CCC4)cc3s2)cc2ccccc21` [Example 51, N-[6-(azetidine-1-sulfonyl)-1,3-benzothiazol-2-yl]-1-methyl-1H-indole-2-carboxamide], for which the fold induction at 10 µM in assay [1] was 2.4 to 4.9; in assay [2] it was under 2.4. Besides, the “CXCL10 secretion by CT26 cells” value in assay [3] (10 μM compound) is recorded as “+ (“+” indicates 100-199 pg/mL)”. In addition, in assay [4] (10 μM compound), the “CXCL10 secretion by CT26 RIG-I −/− cells” value is “− (“−” indicates less than 100 pg/mL)”.

As to `Cn1c(C(=O)Nc2nc3ccc(S(=O)(=O)N4CCCC4)cc3s2)cc2ccccc21` [Example 52, 1-methyl-N-[6-(pyrrolidine-1-sulfonyl)-1,3-benzothiazol-2-yl]-1H-indole-2-carboxamide], the fold induction at 10 µM was 10 to 19 in assay [1] and under 2.4 in assay [2]. The “CXCL10 secretion by CT26 cells” value in assay [3] (20 μM compound (*)) is “+* (“+” indicates 100-199 pg/mL)”. Moreover, the “CXCL10 secretion by CT26 RIG-I −/− cells” value in assay [4] (20 μM compound (*)) was “−* (“−” indicates less than 100 pg/mL)”.

Take `O=C(Nc1nc2ccc(S(=O)(=O)N3CCCC3)cc2s1)c1ccc(-c2cccnc2)cc1` [Example 53, 4-(pyridin-3-yl)-N-[6-(pyrrolidine-1-sulfonyl)-1,3-benzothiazol-2-yl]benzamide]: the fold induction at 10 µM in assay [1] is 2.4 to 4.9; in assay [2] it was under 2.4. The “CXCL10 secretion by CT26 cells” value in assay [3] (10 μM compound) is listed as “− (“−” indicates less than 100 pg/mL)”. Also, the “CXCL10 secretion by CT26 RIG-I −/− cells” value in assay [4] (10 μM compound) is “− (“−” indicates less than 100 pg/mL)”.

`O=C(Nc1nc2ccc(OCC(F)(F)F)cc2s1)c1cc2ccccc2cc1OCCN1CCOCC1` [Example 54, 3-[2-(morpholin-4-yl)ethoxy]-N-[6-(2,2,2-trifluoroethoxy)-1,3-benzothiazol-2-yl]naphthalene-2-carboxamide]: the fold induction at 10 µM in assay [1] was 2.4 to 4.9; in assay [2], under 2.4. In addition, the “CXCL10 secretion by CT26 cells” value in assay [3] (10 μM compound) is listed as “− (“−” indicates less than 100 pg/mL)”. Besides, the “CXCL10 secretion by CT26 RIG-I −/− cells” value in assay [4] (10 μM compound) is given as “− (“−” indicates less than 100 pg/mL)”.

Consider `O=C(Nc1nc2ccc(S(=O)(=O)N3CC4(COC4)C3)cc2s1)c1cc2ccccc2cc1OCCCCN1CCOCC1` [Example 55, 3-[4-(morpholin-4-yl)butoxy]-N-(6-{2-oxa-6-azaspiro[3.3]heptane-6-sulfonyl}-1,3-benzothiazol-2-yl)naphthalene-2-carboxamide], for which the fold induction at 10 µM is 2.4 to 4.9 in assay [1] and under 2.4 in assay [2]. The “CXCL10 secretion by CT26 cells” value in assay [3] (10 μM compound) is recorded as “++ (“++” indicates 200-399 pg/mL)”. Also, the “CXCL10 secretion by CT26 RIG-I −/− cells” value in assay [4] (10 μM compound) was “− (“−” indicates less than 100 pg/mL)”.

In the case of `O=C(Nc1nc2ccc(S(=O)(=O)N3CCC(O)C3)cc2s1)c1cc2ccccc2cc1OCCN1CCOCC1` (centres unmarked) [Example 56, N-{6-[(3-hydroxypyrrolidin-1-yl)sulfonyl]-1,3-benzothiazol-2-yl}-3-[2-(morpholin-4-yl)ethoxy]naphthalene-2-carboxamide], the fold induction at 10 µM was 10 to 19 in assay [1] and under 2.4 in assay [2]. Moreover, in assay [3] (10 μM compound), the “CXCL10 secretion by CT26 cells” value is listed as “+++ (“+++” indicates 400-799 pg/mL)”. Besides, the “CXCL10 secretion by CT26 RIG-I −/− cells” value in assay [4] (10 μM compound) is reported as “− (“−” indicates less than 100 pg/mL)”.

For the compound `O=C(Nc1nc2ccc(S(=O)(=O)N3CCC(O)C3)cc2s1)c1cc2ccccc2cc1OCCCCN1CCOCC1` (centres unmarked) [Example 57, N-{6-[(3-hydroxypyrrolidin-1-yl)sulfonyl]-1,3-benzothiazol-2-yl}-3-[4-(morpholin-4-yl)butoxy]naphthalene-2-carboxamide], the fold induction at 10 µM in assay [1] is 10 to 19; in assay [2], under 2.4. The “CXCL10 secretion by CT26 cells” value in assay [3] (10 μM compound) was “+++ (“+++” indicates 400-799 pg/mL)”. In assay [4] (10 μM compound), the “CXCL10 secretion by CT26 RIG-I −/− cells” value was “− (“−” indicates less than 100 pg/mL)”.
